Columns and labels:
DBH = target: T1, DBH (Bos taurus, UniProt P15101); assay: in vitro DBH inhibition, conversion of tyramine to octopamine; assay type: biochemical; details: octopamine assayed as p-hydroxybenzaldehyde after sodium periodate oxidation, absorbance at 330 nm; read-out: IC50 (molar concentration of compound at which DBH activity was halved)
T1 sequence (P15101 1-610): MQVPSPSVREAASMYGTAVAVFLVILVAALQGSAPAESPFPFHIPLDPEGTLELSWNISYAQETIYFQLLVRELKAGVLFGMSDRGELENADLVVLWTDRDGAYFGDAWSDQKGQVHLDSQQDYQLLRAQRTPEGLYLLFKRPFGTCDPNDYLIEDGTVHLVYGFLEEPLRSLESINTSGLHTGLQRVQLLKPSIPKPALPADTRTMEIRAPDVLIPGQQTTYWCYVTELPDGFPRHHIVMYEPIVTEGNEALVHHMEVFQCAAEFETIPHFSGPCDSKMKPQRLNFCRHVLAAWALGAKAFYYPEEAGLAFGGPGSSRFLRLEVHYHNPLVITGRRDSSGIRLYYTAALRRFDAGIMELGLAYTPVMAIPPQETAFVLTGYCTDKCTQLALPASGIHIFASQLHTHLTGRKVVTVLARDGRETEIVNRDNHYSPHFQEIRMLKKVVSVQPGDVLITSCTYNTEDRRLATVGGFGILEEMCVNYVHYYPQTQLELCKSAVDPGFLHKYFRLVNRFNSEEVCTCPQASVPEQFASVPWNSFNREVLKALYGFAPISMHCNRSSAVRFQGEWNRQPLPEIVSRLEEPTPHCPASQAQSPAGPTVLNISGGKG
Experimental: Listed in Table I are Formula (I) compounds that were tested for in vitro DBH inhibition by a standard procedure for assaying conversion of tyramine to octopamine in the presence of DBH. J. J. Pisano, et al., Biochim. Biophys. 43, 566-568 (1960). Octopamine was assayed following sodium periodate oxidation to p-hydroxybenzaldehyde by measuring spectrophotometric absorbance at 330 nm. Inhibition is given in molar concentration of compound at which DBH activity was halved (IC50).

[1] = system: Spontaneously hypertensive rats; assay: mean arterial blood pressure in spontaneously hypertensive rats; assay type: in vivo; details: 50 mg/kg intraperitoneally
Experimental: Spontaneously hypertensive rats were treated with 2-(2-aminoethylthio) 1-(3,5 difluorobenzyl)imidazole at a dose of 50 mg/kg intraperitoneally, and mean arterial blood pressure was monitored for four hours using an indwelling cannula in the femoral artery. […] The maximal blood pressure reduction was approximately 10 mmHg.

- IC50 (DBH): 1800 µM
Structure (SMILES): Cl.Cl.NCCSc1nccn1Cc1cc(F)cc(F)c1 [2-(2-Aminoethylthio)-1-(3,5-difluorobenzyl)imidazole Dihydrochloride]
- maximal blood pressure reduction ([1]; mean arterial blood pressure, femoral artery cannula): approximately 10 mmHg
- blood pressure reduction compared to vehicle treated controls ([1]; monitored for four hours): significant blood pressure reductions
- time of lowest blood pressures after administration ([1]; monitored for four hours): 3 to 4 h
- time to significant blood pressure reductions ([1]; vs vehicle treated controls): ≤ 30 min
